Assay results published in patent US10336717B2, “Inhibitors of beta-secretase” (Vitae Pharmaceuticals, Inc., priority 2009, dated 2019).

Legend:
[1] = molecular target: truncated human beta-secretase (residues 1-458, His6-tagged) (Homo sapiens (Human), UniProt P56817); test: BACE enzyme assay (fluorescence quench, Example 434A); format: biochemical
BACE = BACE (Homo sapiens (Human), UniProt P56817); test: BACE cell assay: secreted Aβ 1-40 in H4-APPsw cells (AlphaLISA/ELISA, Example 434B); format: cell-based; details: in vitro cell activity, Aβ 1-40 in culture media after overnight treatment
Sequence of BACE (P56817 46-501 limits assumed): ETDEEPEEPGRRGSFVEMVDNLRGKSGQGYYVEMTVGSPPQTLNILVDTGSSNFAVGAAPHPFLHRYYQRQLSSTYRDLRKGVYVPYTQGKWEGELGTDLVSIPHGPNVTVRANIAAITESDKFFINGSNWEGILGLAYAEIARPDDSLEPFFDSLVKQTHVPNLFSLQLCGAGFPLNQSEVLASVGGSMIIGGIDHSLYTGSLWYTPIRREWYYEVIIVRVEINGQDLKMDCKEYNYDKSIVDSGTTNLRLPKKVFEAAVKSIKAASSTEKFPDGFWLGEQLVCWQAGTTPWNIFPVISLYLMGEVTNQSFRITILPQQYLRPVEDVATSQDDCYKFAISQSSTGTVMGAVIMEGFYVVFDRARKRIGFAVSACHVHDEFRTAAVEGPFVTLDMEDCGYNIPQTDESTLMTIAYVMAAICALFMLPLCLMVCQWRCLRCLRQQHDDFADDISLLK
Experimental: For the assay, cells are treated overnight in the presence of inhibitor and the culture media are subjected to ELISA analysis of soluble Amyloid Beta 1-40 (Aβ 1-40).
H4 neuroglioma cell line was cultured in DMEM with 10% FBS and 1% penicillin/streptomycin (Culture Medium) at 37° C., 5% CO2.
Split H4-APPsw cells in Culture Medium and culture overnight such that cells will be ˜80% confluent next morning.
After determining the desired final concentration of compound to be tested, create a 500× dilution plate. Add DMSO, but not inhibitor, to each well of Column 1. […] Add compounds of interest at 500× desired final concentration to wells A3-A10. Add DMSO, but not inhibitor, to each well of Columns 11 and 12. Dilute contents of Row A 1:3 in Row B, then continue through Rows C-H.
To create a 2× solution of compound in media, add 996 μL Culture Medium to each well of a 96-well 2 mL deep well plate (Media Plate) in biosafety hood. Add 4 μL 5 mM control compound to Media Plate wells A1-D1 for determination of full inhibition.
With a multichannel pipettor, mix each well of Media Plate several times to insure homogeneity. Add 100 μL of mixture to Black polymer bottom P-D-L plates. Next, place Medium Plate and Cell Plate in the incubator. […]
After 16 h incubation, spin Cell Plate for 8 min at 1200 rpm. The primary reading of Aβ 1-40 levels is done using PerkinElmer AlphaLISA technology. […]

Sequence of truncated human beta-secretase (residues 1-458, His6-tagged) (P56817 22-458): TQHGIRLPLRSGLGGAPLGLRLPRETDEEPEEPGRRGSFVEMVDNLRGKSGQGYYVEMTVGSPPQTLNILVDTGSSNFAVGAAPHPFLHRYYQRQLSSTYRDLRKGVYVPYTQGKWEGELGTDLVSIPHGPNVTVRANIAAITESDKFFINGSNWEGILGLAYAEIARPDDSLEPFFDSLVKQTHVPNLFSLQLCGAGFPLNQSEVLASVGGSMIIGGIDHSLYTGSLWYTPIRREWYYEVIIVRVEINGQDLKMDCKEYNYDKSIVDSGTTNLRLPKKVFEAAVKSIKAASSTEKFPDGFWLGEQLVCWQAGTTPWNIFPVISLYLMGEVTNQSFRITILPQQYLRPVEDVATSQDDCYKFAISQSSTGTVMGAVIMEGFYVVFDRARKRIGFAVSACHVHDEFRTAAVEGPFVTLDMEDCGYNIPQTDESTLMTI

## CN1OC2(N=C1N)c1ccccc1CC21CCc2ccccc2CC1 (centres unmarked) [Compound 35]
[1]
  IC50: 0.105 µM

## CCOC1CCC2(CC1)Cc1ccc(-c3cccc(C#N)c3)cc1C21N=C(N)N(C)O1 (centres unmarked) [Compound 49]
BACE
  IC50: < 1 µM
